The values that follow come from ChEMBL document CHEMBL5370624 (J Med Chem, 2023).

The structures appear in SMILES notation.

In data set [1] the target is T1, Toll-like receptor 4 (Homo sapiens, UniProt O00206). In words: Agonist activity at TLR4 in human PBMC cells assessed as induction of IL-1beta release incubated for 20 hrs by ELISA. It is filed as cell-based.
Data set [2] has as its target T1, Toll-like receptor 4. Kind of data set: Agonist activity at TLR4 in human PBMC cells assessed as induction of TNFalpha release incubated for 20 hrs by ELISA. The format is cell-based.
Data set [3] has as its target T1, Toll-like receptor 4. Kind of data set: Agonist activity at human TLR4 in human HEK-Blue hTLR4 cells assessed as NF-kappaB activation incubated for 48 hrs by SEAP reporter gene based Quanti-blue assay. The format is cell-based. In general terms: Reporter assays use an easily measured gene product as a stand-in for the process of interest.
In data set [4] the target is T1, Toll-like receptor 4. In words: Agonist activity at TLR4 in human PBMC cells assessed as induction of RANTES release incubated for 20 hrs by ELISA. The format is cell-based. On the technique in general: ELISA stands for enzyme-linked immunosorbent assay.
Data set [5] deals with T2, Toll-like receptor 4 (Mus musculus, UniProt Q9QUK6).
T2 sequence (Q9QUK6 whole entry): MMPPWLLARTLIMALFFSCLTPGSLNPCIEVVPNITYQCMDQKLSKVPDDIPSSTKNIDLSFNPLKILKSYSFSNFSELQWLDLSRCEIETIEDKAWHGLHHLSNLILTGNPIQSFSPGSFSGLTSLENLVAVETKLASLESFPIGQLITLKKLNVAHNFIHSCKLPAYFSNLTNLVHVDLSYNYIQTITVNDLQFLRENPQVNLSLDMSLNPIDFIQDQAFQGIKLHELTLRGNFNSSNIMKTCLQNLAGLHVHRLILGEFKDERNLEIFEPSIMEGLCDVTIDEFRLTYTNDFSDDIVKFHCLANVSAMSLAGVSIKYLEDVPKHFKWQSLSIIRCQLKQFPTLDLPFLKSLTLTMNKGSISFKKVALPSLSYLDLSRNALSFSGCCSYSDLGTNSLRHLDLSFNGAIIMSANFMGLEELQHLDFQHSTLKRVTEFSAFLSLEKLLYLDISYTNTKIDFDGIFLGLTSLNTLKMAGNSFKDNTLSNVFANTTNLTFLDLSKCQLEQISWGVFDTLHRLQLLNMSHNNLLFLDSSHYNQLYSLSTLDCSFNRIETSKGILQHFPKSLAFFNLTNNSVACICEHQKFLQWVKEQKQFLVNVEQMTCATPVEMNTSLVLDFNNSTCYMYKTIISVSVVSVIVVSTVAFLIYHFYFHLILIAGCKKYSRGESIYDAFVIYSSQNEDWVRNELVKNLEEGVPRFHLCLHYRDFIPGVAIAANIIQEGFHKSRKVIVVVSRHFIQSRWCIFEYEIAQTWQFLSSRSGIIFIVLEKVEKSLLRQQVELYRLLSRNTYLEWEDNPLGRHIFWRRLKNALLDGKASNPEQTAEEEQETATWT
Kind of data set: Agonist activity at TLR4 in mouse RAW264.7 cells assessed as induction of MIP-1beta release incubated for 24 hrs by ELISA. It is filed as cell-based.

The target in data set [6] is T2, Toll-like receptor 4. Kind of data set: Agonist activity at mouse TLR4 in human HEK-Blue mTLR4 cells assessed as NF-kappaB activation incubated for 48 hrs by SEAP reporter gene based Quanti-blue assay. It is filed as cell-based.
Data set [7] has as its target T1, Toll-like receptor 4. In words: Agonist activity at TLR4 in human PBMC cells assessed as induction of MIP-1beta release incubated for 20 hrs by ELISA. It is filed as cell-based.
Data set [8] addresses T1, Toll-like receptor 4. In words: Agonist activity at TLR4 in human MONO-MAC-6 cells assessed as induction of MIP-1beta release incubated for 24 hrs by ELISA. It is filed as cell-based.
A short description of data set [9]: Aqueous stability of the compound assessed as drug degradation at 40 degreeC and measured upto 12 months by LC-MS analysis. The format is physicochemical. The following applies: buffer, 8760 h.
The nature of data set [10]: Aqueous stability of the compound assessed as drug degradation at 2 to 8 degreeC and measured upto 12 months by LC-MS analysis. The format is physicochemical. The following applies: buffer, 8760 h.
Data set [11] in a line: Aqueous stability of the compound assessed as drug degradation at 2 to 8 degreeC and measured upto 12 months by RP-HPLC analysis. The format is physicochemical. Particulars: buffer, 8760 h.

T1 sequence (O00206 whole entry): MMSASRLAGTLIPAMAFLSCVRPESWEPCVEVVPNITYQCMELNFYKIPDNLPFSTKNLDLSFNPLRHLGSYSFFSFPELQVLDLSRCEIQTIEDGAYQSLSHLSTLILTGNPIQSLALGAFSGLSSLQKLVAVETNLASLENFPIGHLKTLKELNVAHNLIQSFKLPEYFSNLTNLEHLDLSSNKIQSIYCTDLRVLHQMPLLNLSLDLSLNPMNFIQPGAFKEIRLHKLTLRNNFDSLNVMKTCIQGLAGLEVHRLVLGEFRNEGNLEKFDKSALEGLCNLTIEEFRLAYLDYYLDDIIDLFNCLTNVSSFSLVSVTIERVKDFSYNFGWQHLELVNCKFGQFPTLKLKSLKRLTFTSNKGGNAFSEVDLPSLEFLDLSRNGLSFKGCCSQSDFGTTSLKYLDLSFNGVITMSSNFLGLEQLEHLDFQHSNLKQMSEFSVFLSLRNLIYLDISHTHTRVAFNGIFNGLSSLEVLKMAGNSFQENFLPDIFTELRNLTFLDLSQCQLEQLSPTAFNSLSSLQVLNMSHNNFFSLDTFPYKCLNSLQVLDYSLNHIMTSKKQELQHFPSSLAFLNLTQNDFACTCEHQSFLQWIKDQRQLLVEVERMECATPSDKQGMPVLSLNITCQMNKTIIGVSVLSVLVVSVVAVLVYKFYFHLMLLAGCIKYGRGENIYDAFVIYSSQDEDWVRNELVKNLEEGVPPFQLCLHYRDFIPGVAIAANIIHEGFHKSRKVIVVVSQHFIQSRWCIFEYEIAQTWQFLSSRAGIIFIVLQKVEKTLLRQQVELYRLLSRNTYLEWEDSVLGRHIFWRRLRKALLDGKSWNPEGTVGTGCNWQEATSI

One may read the EC50 as the concentration at which the effect is half-maximal. As for `CCCCCCCCCCCCCCCC(=O)O[C@H](CCCCCCCCCCC)CC(=O)N[C@@H]1[C@@H](O)[C@H](O)[C@@H](CO[C@@H]2O[C@H](CO)[C@@H](OP(=O)(O)O)[C@H](OC(=O)C[C@@H](CCCCCCCCCCC)OC(=O)CCCCCCCCCCCCC)[C@H]2NC(=O)C[C@@H](CCCCCCCCCCC)OC(=O)CCCCCCCCCCC)O[C@@H]1O`, the EC50 on Toll-like receptor 4 [1] is 42.4 nM; on Toll-like receptor 4 [2], 200 nM; at Toll-like receptor 4 [3] it was 246 nM; on Toll-like receptor 4 [4], 31.5 nM; on Toll-like receptor 4 [5], 3.73 nM; on Toll-like receptor 4 [6] it was 6.54 nM. Besides, the EC50 at Toll-like receptor 4 [7] came out at 23.7 nM; on Toll-like receptor 4 [8], 6.37 nM.

For the molecule `CCCCCCCCCCC[C@H](CC(=O)NCCO[C@@H]1O[C@H](CO)[C@@H](OP(=O)(O)O)[C@@H](NC(=O)C[C@@H](CCCCCCCCCCC)OC(=O)CCCCCCCCC)[C@H]1NC(=O)C[C@@H](CCCCCCCCCCC)OC(=O)CCCCCCCCC)OC(=O)CCCCCCCCC.CCN(CC)CC`, the Stability entry in [9], in [10] and in data set [11] was “Stable” in each case. Also, the EC50 at Toll-like receptor 4 [1] was found to be 8.77 nM; at Toll-like receptor 4 [2], 28 nM; on Toll-like receptor 4 [3], 91.9 nM; at Toll-like receptor 4 [4], 3.68 nM; at Toll-like receptor 4 [5], 0.26 nM; on Toll-like receptor 4 [6] it was 0.37 nM. Moreover, the EC50 at Toll-like receptor 4 [7] was 1.61 nM; at Toll-like receptor 4 [8], 1.65 nM.

With `CCCCCCCCCCCCCC(=O)O[C@H](CCCCCCCCCCC)CC(=O)O[C@@H]1[C@@H](NC(=O)C[C@H](CCCCCCCCCCC)OC(=O)CCCCCCCCCCCCC)[C@H](OC[C@H]2O[C@H](O)[C@H](NC(=O)C[C@H](O)CCCCCCCCCCC)[C@@H](OC(=O)C[C@H](O)CCCCCCCCCCC)[C@@H]2O)O[C@H](CO)[C@H]1OP(=O)(O)O`, the EC50 at Toll-like receptor 4 [1] stood at 2.11 nM; on Toll-like receptor 4 [2], 10.4 nM; at Toll-like receptor 4 [3] it was 6.23 nM; on Toll-like receptor 4 [4], 1.92 nM; on Toll-like receptor 4 [5], 0.49 nM; on Toll-like receptor 4 [6], 1.4 nM. The EC50 at Toll-like receptor 4 [7] was 0.76 nM; on Toll-like receptor 4 [8] it was 0.99 nM.
